According to patent publication US20250051315A1, “COMPOUND, ANGIOTENSIN II TYPE 1 RECEPTOR ANTAGONIST AND PHARMACEUTICAL COMPOSITION” (Alchemedicine, Inc., priority 2021, published 2025):

Assays:
[1] = target: T1, human angiotensin II type 1 receptor (Homo sapiens, UniProt P30556); experiment: Angiotensin II type 1 receptor inhibitory effect (aequorin luminescence, angiotensin II at EC80); type: cell-based; details: CHO-K1-mt aequorin-Gα16 cells expressing human AT1 receptor
T1 construct: expressed in transfected cells; host or cells: CHO-K1-mt aequorin-Gα16 cells
T1 sequence (P30556 1-359): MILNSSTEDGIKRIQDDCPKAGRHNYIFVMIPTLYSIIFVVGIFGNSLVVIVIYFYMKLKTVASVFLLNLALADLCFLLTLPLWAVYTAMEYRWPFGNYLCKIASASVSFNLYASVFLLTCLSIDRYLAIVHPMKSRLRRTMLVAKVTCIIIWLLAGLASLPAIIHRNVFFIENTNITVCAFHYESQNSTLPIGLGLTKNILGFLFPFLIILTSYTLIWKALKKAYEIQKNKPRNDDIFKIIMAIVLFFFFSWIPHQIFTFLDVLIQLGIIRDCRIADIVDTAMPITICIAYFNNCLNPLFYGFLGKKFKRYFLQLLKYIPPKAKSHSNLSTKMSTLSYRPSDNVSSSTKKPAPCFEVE
Protocol: The inhibitory effect on angiotensin II type 1 receptor was studied by the following method.
CHO-K1-mt aequorin-Gα16 cells forced to express human angiotensin II type 1 receptor (Accession Number: NP 000676.1) were cultured in an antibiotic-free medium for 18 hours and then treated with PBS-EDTA (5 mM EDTA). After centrifugation (2 minutes, 405×g, room temperature), the cells were suspended in assay buffer (DMEM/HAM's F12 with HEPES+0.1% BSA protease free).
1×10^6 cells/mL of the cells were incubated at room temperature for 4 hours or more in the presence of Coelenterazin h (Molecular Probes) at a final concentration of 5 µM to confirm the agonist response by angiotensin II, and determine the concentration of angiotensin II corresponding to EC 80.
(§1) Then, 50 μL of the cell suspension treated with Coelenterazin h at 10,000 cells/well and 50 μL of assay buffer containing the test substance (final concentration: 0.5% DMSO) were added to a 96-well plate. After 15 minutes, 100 μL of angiotensin II solution was added so that the final concentration reached the EC80 concentration, and the receptor activity was measured by the amount of luminescence using FDSS6000 (Hamamatsu Photonics). IC50 values were calculated using XLfit (IDBS).

[2] = target: T2, human endothelin A receptor (Homo sapiens, UniProt P25101); experiment: Endothelin A receptor inhibitory effect (aequorin luminescence, endothelin at EC80); type: cell-based; details: CHO-K1-mt aequorin cells expressing human endothelin A receptor, read-out: ETA Receptor Inhibitory Effect
T2 construct: expressed in transfected cells; host or cells: CHO-K1-mt aequorin cells
T2 sequence (P25101 21-427): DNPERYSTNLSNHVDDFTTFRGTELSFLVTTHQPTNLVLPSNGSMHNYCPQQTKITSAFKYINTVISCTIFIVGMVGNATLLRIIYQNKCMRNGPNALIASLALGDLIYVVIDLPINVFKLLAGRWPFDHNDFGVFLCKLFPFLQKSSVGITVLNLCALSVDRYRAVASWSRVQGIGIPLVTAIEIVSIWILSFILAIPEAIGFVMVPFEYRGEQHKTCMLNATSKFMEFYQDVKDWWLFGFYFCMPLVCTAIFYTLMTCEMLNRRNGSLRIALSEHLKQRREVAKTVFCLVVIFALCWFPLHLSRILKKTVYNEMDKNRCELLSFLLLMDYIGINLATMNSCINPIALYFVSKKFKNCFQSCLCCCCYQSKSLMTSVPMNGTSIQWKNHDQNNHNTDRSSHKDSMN
Protocol: The inhibitory effect on endothelin A receptor was studied by the following method.
CHO-K1-mt aequorin cells forced to express human endothelin A receptor (Accession Number: NP_001948.1) were cultured in an antibiotic-free medium for 18 hours and then treated with PBS-EDTA (5 mM EDTA). After centrifugation (2 minutes, 405×g, room temperature), the cells were suspended in assay buffer (DMEM/HAM'S F12 with HEPES+0.1% BSA protease free). 1×10^6 cells/mL of the cells were incubated at room temperature for 4 hours in the presence of Coelenterazin h (Molecular Probes) at a final concentration of 5 μM to confirm the agonist response by endothelin, and determine the concentration of endothelin corresponding to EC 80.
as §1, with “endothelin” for “100 μL of angiotensin II solution”

[3] = tested on: Angiotensin II-Induced Hypertensive Activity; experiment: Suppressive effect on angiotensin II-induced hypertensive activity; type: in vivo; details: anesthetized male Wistar rats; 1 mg/kg intravenously over 10 minutes, then ATII 300 ng/kg i.v.; 20 seconds after ATII; n=3
Protocol: Male Wistar rats aged 8 to 12 weeks underwent catheterization of the trachea for airway management, catheterization of the carotid artery for blood pressure measurement, and catheterization of the femoral vein for angiotensin II (ATII) administration, under analgesic treatment and urethane anesthesia. After confirming that blood pressure and heart rate had stabilized, 1 mg/kg (15 mL/kg) of solvent (PBS) or test substance (the compound of Example 1) adjusted with the solvent was administered intravenously over 10 minutes. Then, ATII (300 ng/kg) was administered intravenously and blood pressure was monitored until 10 minutes after administration. The test was performed with n=3 in each group. For analysis, using 2 minutes before ATII administration as a pre-value, the systolic and diastolic blood pressures at the pre-value and 20 seconds immediately after ATII administration, when the blood pressure is maximum, were determined and the differences (delta values) from the pre-values were calculated. Student's t-test was used to compare the delta values between the solvent administration group and test substance administration group.

`CCCCC1=NC2(CCCC2)C(=O)N1Cc1ccc(-c2ccccc2S(=O)(=O)Nc2ncc(C)nc2OC)c2c1COC2` [Example 2, 2-(7-((2-Butyl-4-oxo-1,3-diazaspiro[4,4]nona-1-en-3-yl)methyl)-1,3-dihydroisobenzofuran-4-yl)-N-(3-methoxy-5-methylpyrazin-2-yl)benzenesulfonamide] gave an IC50 [1] of 1 to 100 nM and an IC50 [2] of 1 to 100 nM.

For `CCCCC1=NC2(CCCC2)C(=O)N1Cc1ccc(-c2ccccc2S(=O)(=O)Nc2noc(C)c2C)c2c1COC2` [Example 1, 2-(7-((2-Butyl-4-oxo-1,3-diazaspiro[4,4]nona-1-en-3-yl)methyl)-1,3-dihydroisobenzofuran-4-yl)-N-(4,5-dimethylisoxazol-3-yl)benzenesulfonamide], the IC50 [1] was no more than 1 nM, the “Diastolic Blood Pressure, difference (delta value) from pre-value” [3] was 9 ± 5 and the “Systolic Blood Pressure, difference (delta value) from pre-value” [3] was 8 ± 3. It also gave an IC50 [2] greater than 100 nM.

In the case of `CCCCC1=NC2(CCCC2)C(=O)N1Cc1ccc(-c2ccccc2S(=O)(=O)Nc2noc(C)c2Cl)c2c1COC2` [Example 3, 2-(7-((2-Butyl-4-oxo-1,3-diazaspiro[4,4]nona-1-en-3-yl)methyl)-1,3-dihydroisobenzofuran-4-yl)-N-(4-chloro-5-methylisoxazol-3-yl)benzenesulfonamide], the IC50 [1] is reported as 1 to 100 nM and the IC50 [2] is reported as 1 to 100 nM.
